Data published in EP0376166A1, “Condensed quinoline system compound and process of preparation thereof” (MECT CORPORATION, priority 1988, dated 1990).
In brackets after ≈: the same amount, converted by molar mass. One block for each compound: values may come before it.

Key:
KB Cell = assay: Inhibition of multiplication (growth) of KB cells, in vitro; type: cell-based, human; settings: Homo sapiens, 72 h, concentration for 50% growth inhibition vs control, compound added Day 1, cells counted Day 4, read-out: Conc.(ED50)
Method: KB cells, carcinomatous cell tumors, were transferred to in vitro floatation incubator systems, and added respectively with compounds of Examples 1 to 33. The results of cultivation added with these compounds were compared with the results of the control which was not added with any compound.
Cell used: KB Cell (Originating from human mouth epidermal cancer) Culture medium: Eagles minimal essential medium (MEM) supplemented with 10% calf serum Cultivation: 37°C carbon dioxide gas incubator (5% CO₂)
Day 0: KB cells were diluted in the culture medium to adjust the KB cell density to 2 x 10⁴/ml. Three ml of the cell suspension was inoculated in each of 60 mm plastic dishes. Two dishes per standard dosage were used. Day 1: Test compound was added to the medium so that the final concentrations were set to 100, 30, 10, 3 and 1 µg/ml. Day 4: Cells were scraped off from the dish using trypsin, and the cell number was countered using a Corter counter.
In generally accordance with the stipulations set forth by the National Cancer Institute (NCI), U.S.A., the concentration of compound necessary for exerting 50% growth inhibition (ED₅₀) compared to the control was determined. A compound was judged as effective when ED₅₀ was less than 4 µg/ml.

P-388 = assay: Prolongation of life span in P-388 implanted mice; type: in vivo, CDF mouse; settings: for response vs control in vivo at 12.5 mg/kg / response vs control in vivo at 25 mg/kg / response vs control in vivo at 50 mg/kg / response vs control in vivo at 100 mg/kg / response vs control in vivo at 200 mg/kg / response vs control in vivo at 400 mg/kg: P388, ip, T/C %, Day 1 and Day 5, P-388 10⁶ cells/mouse i.p., read-out: Ratio of Life Prolongation (%); for response vs control in vivo at 50 mg/kg: dosage 50 mg/kg; for cure: cured mice per group of 6
Method: Animal used: CDF mouse (6 mice/group) Tumor: P-388 Number of implanted cells: 10⁶ cells/mouse Implanted site: i.p. Day of administration: Day 1 and Day 5 Dosage: LD₅₀ or 400 mg/kg/day at the maximum

SMILES: COc1cc(NS(C)(=O)=O)ccc1Nc1c2ccccc2nc2c1[nH]c1ccc(NC3OC(COC(C)=O)C(OC(C)=O)C(OC(C)=O)C3OC(C)=O)cc12 (centres unmarked) [Compound 23, N-{4-[(7-(2,3,4,6-tetra-O-acetylglycosyl-1-amino)-10H-indolo[3,2-b]quinoline-11-yl)amino]-3-methoxyphenyl} methanesulfonamide]
- IC50 (KB Cell): < 0.3 µg/mL
- response vs control in vivo at 12.5 mg/kg (P-388; dosage 12.5 mg/kg): 300%
- response vs control in vivo at 25 mg/kg (P-388; dosage 25 mg/kg): 148%
- response vs control in vivo at 50 mg/kg (P-388): 58%
- cure (P-388; dosage 12.5 mg/kg): 2/6
- cure (P-388; dosage 25 mg/kg): 1/6

SMILES: COc1cc(NS(C)(=O)=O)ccc1Nc1c2ccccc2nc2c1[nH]c1ccc(NC3OC(CO)C(O)C(O)C3O)cc12 (centres unmarked) [Compound 24, N-{4-[(7-(glycosyl-1-amino)-10H-indolo[3,2-b]quinoline-11-yl)amino]-3-methoxyphenyl} methanesulfonamide]
- IC50 (KB Cell): < 0.3 µg/mL
- response vs control in vivo at 12.5 mg/kg (P-388; dosage 12.5 mg/kg): 213%
- response vs control in vivo at 25 mg/kg (P-388; dosage 25 mg/kg): 145%
- response vs control in vivo at 50 mg/kg (P-388): 90%
- cure (P-388; dosage 12.5 mg/kg): 2/6

SMILES: COc1cc(NS(C)(=O)=O)ccc1Nc1c2ccccc2nc2c1[nH]c1ccc(NC(C)=O)cc12 [Compound 25]
- IC50 (KB Cell): < 0.3 µg/mL
- response vs control in vivo at 12.5 mg/kg (P-388; dosage 12.5 mg/kg): 135%
- response vs control in vivo at 25 mg/kg (P-388; dosage 25 mg/kg): 174%

SMILES: COc1cc(NS(C)(=O)=O)ccc1Nc1c2ccccc2nc2c1[nH]c1ccc(NS(C)(=O)=O)cc12 [Compound 26, 2-methanesulfonamide-6-(4-methanesulfonamide-2-methoxyanilino)indolo[3,2-b]quinoline]
- IC50 (KB Cell): < 0.3 µg/mL
- response vs control in vivo at 12.5 mg/kg (P-388; dosage 12.5 mg/kg): 126%
- response vs control in vivo at 25 mg/kg (P-388; dosage 25 mg/kg): 111%

SMILES: COc1cc(NS(C)(=O)=O)ccc1Nc1c2cccc(C)c2nc2c1oc1ccccc12 [Compound 27, 6-(4-methanesulfonamide-2-methoxyanilino)-10-methylbenzofurano[3,2-b]quinoline]
- IC50 (KB Cell): 0.38 µg/mL (≈ 0.849 µM)
- response vs control in vivo at 100 mg/kg (P-388; dosage 100 mg/kg): 230%
- response vs control in vivo at 200 mg/kg (P-388; dosage 200 mg/kg): 250%
- cure (P-388; dosage 200 mg/kg): 1/6

SMILES: COc1cc(NS(C)(=O)=O)ccc1Nc1c2cccc(C)c2nc2c1oc1cccc(C)c12 [Compound 28, 6-(4-methanesulfonamide-2-methoxyanilino)-1,10-dimethylbenzofurano[3,2-b]quinoline]
- IC50 (KB Cell): < 0.3 µg/mL
- response vs control in vivo at 50 mg/kg (P-388): 204%
- response vs control in vivo at 100 mg/kg (P-388; dosage 100 mg/kg): 269%

SMILES: COc1cc(NS(C)(=O)=O)ccc1Nc1c2cccc(C)c2nc2c1oc1cc(C)ccc12 [Compound 29, 6-(4-methanesulfonamide-2-methoxyanilino)-3,10-dimethylbenzofurano[3,2-b]quinoline]
- IC50 (KB Cell): < 0.3 µg/mL
- response vs control in vivo at 100 mg/kg (P-388; dosage 100 mg/kg): 204%
- response vs control in vivo at 200 mg/kg (P-388; dosage 200 mg/kg): 269%
- response vs control in vivo at 400 mg/kg (P-388; dosage 400 mg/kg): 76%
- cure (P-388; dosage 100 mg/kg): 1/6
- cure (P-388; dosage 200 mg/kg): 1/6

SMILES: COc1cc(NS(C)(=O)=O)ccc1Nc1c2ccccc2nc2c1oc1cccc(C)c12 [Compound 30, 6-(4-methanesulfonamide-2-methoxyanilino)-1-methylbenzofurano[3,2-b]quinoline]
- IC50 (KB Cell): 1.5 µg/mL (≈ 3.35 µM)
- response vs control in vivo at 100 mg/kg (P-388; dosage 100 mg/kg): 105%
- response vs control in vivo at 200 mg/kg (P-388; dosage 200 mg/kg): 108%
- response vs control in vivo at 400 mg/kg (P-388; dosage 400 mg/kg): 151%

The next lines start with results.

- IC50 (KB Cell): < 0.3 µg/mL
SMILES: COc1cc(NS(C)(=O)=O)ccc1Nc1c2ccccc2nc2c1oc1cc(C)ccc12 [Compound 31, 6-(4-methanesulfonamide-2-methoxyanilino)-3-methylbenzofurano[3,2-b]quinoline]
- response vs control in vivo at 100 mg/kg (P-388; dosage 100 mg/kg): 147%
- response vs control in vivo at 200 mg/kg (P-388; dosage 200 mg/kg): 175%
- response vs control in vivo at 400 mg/kg (P-388; dosage 400 mg/kg): 219%
- cure (P-388; dosage 200 mg/kg): 1/6
- cure (P-388; dosage 400 mg/kg): 1/6

- IC50 (KB Cell): 1.4 µg/mL (≈ 3.02 µM)
SMILES: COc1cc(NS(C)(=O)=O)ccc1Nc1c2cccc(C)c2nc2c1sc1ccccc12 [Compound 32, 6-(4-methanesulfonamide-2-methoxyanilino)-10-methylbenzothieno[3,2-b]quinoline]
- response vs control in vivo at 100 mg/kg (P-388; dosage 100 mg/kg): 137%
- response vs control in vivo at 200 mg/kg (P-388; dosage 200 mg/kg): 167%
- response vs control in vivo at 400 mg/kg (P-388; dosage 400 mg/kg): 228%

- IC50 (KB Cell): < 0.3 µg/mL
SMILES: COc1cc(NS(C)(=O)=O)ccc1Nc1c2ccccc2nc2c1sc1cccc(C)c12 [Compound 33, 6-(4-methanesulfonamide-2-methoxyanilino)-1-methylbenzothieno[3,2-b]quinoline]
- response vs control in vivo at 100 mg/kg (P-388; dosage 100 mg/kg): 191%
- response vs control in vivo at 200 mg/kg (P-388; dosage 200 mg/kg): 255%
- response vs control in vivo at 400 mg/kg (P-388; dosage 400 mg/kg): 280%
- cure (P-388; dosage 200 mg/kg): 1/6
- cure (P-388; dosage 400 mg/kg): 1/6
